Where a SMILES comes first, the peptide text is derived from it. [ ]: non-standard residue; d: D form. N(1S-Me-propyl)Gly = CC[C@H](C)NCC(=O)O; Nspe = C[C@H](NCC(=O)O)c1ccccc1; Nlys = NCCCCNCC(=O)O
Experiments:
IL-6 = IL-6 in supernatant of THP-1 macrophages co-incubated with peptoid and LPS (ELISA); type: cell-based, human; conditions: 3 days, vs LPS alone
Procedure: (§1) THP-1 monocytes were differentiated into macrophages through exposure to phorbol 12-myristate 13-acetate (PMA) for three days prior to experimentation 10. […] Upon differentiation, these cells were then incubated (3 days) with media containing JPT1a (50, 10, or 2 μM) alone or JPT1a (50, 10, or 2 μM) in the presence of low-dose (2 ng/mL) lipopolysaccharide (LPS) as a chronic pro-inflammatory stimulus 11. Treatment with 2 ng/mL LPS alone served as a positive control, while treatment with an equivalent volume of buffer diluted into media served as the vehicle. Cellular supernatant was harvested on day 3 12; these samples were immediately centrifuged at 1200 rpm for 10 min at 25° C. to remove any cells or debris. The top 80% of this volume was subsequently removed and stored at −80° C. for later assessment of cytokines via ELISA. Cells were fixed and stained for RAGE, phalloidin (cytoplasmic marker), and DAPI (nuclear marker) 13. […] All multi-channel images were converted to TIFF file format via ImageJ64 software for quantitative image analysis using a custom subroutine written in Matlab™ software to obtain the average RAGE expression per volume of cells, and the data generated was assessed for statistical significance using GraphPad Prism 7.0 software 15.
(§2) As shown in FIGS. 2B-2D, THP-1 macrophages were treated with JPT1a alone (white) or in the presence of a chronic low-dose (2 ng/mL) of LPS (grey), for 3 days prior to supernatant harvest and storage. Examination of the supernatant via ELISA determined the concentrations of (FIG. 2B) IL-1β, (FIG. 2C) IL-6, and (FIG. 2D) IL-8. […]
as §2, with “5B-5D,” for “2B-2D,”, “JPT1” for “JPT1a”, “5B)” for “2B)”, “5C)” for “2C)”, “5D)” for “2D)”

Aβ1-40 = target: T1, Aβ1-40 (Homo sapiens, UniProt P05067); conditions: cited from earlier work
T1 construct: modulate Aβ1-40 aggregation

IL-1β [1] = assay: IL-1β in supernatant of THP-1 macrophages co-incubated with peptoid and LPS (ELISA); type: cell-based, human; conditions: peptoid 50 μM with 2 ng/mL LPS, 3 days; vs LPS alone
Procedure: as §1, with “debris.” for “debris. The top 80% of this volume was subsequently removed and stored at −80° C. for later assessment of cytokines via ELISA. Cells were fixed and stained for RAGE, phalloidin (cytoplasmic marker), and DAPI (nuclear marker) 13.”
as §2

IL-1β [2] = assay: IL-1β expression in previously LPS-stimulated THP1 macrophages (ELISA); type: cell-based, human; conditions: 25, 5, 1 μM added after 48 h of 2 ng/mL LPS, additional 24 h
Procedure: (§3) THP-1 monocytes were differentiated as described above 20. Upon differentiation, these cells were then incubated (48 h) with media containing low-dose (2 ng/mL) LPS as a chronic pro-inflammatory stimulus 21. Following incubation, JPT1a or JPT1 was added for final concentrations of 25, 5, and 1 μM 22, and cells were incubated an additional 24 h. Treatment with 2 ng/mL LPS alone served as a positive control, while treatment with an equivalent volume of buffer diluted into media served as the vehicle. Media was collected for later assessment of cytokines via ELISA as described above 23. Cells were fixed and stained for RAGE, phalloidin (cytoplasmic marker), and DAPI (nuclear marker) 24. Each channel was imaged with a Zeiss LSM 510 META Confocal Scanning Laser Microscope using a plan-neofluar 40×/1.3 oil DIC immersion objective; three of these multi-channel images were obtained from each slide in each experiment. 25 All multi-channel images were converted to TIFF file format via ImageJ64 software for quantitative image analysis using a custom subroutine written in Matlab™ software to obtain the average RAGE expression per volume of cells, and the data generated was assessed for statistical significance using GraphPad Prism 7.0 software 26.
(§4) As shown in FIGS. 4B-4D, THP1 macrophages were treated with low-dose LPS at 2 ng/mL. […]

IL-8 = IL-8 expression in previously LPS-stimulated THP1 macrophages (ELISA); type: cell-based, human; conditions: 25, 5, 1 μM added after 48 h of 2 ng/mL LPS, additional 24 h
Procedure: as §3, §4

RAGE = assay: Reversal of LPS-induced RAGE expression in previously stimulated THP-1 macrophages (confocal imaging); type: cell-based, human; conditions: additional 24 h, vs LPS alone
Procedure: as §3, with “Each channel was imaged with a Zeiss LSM 510 META Confocal Scanning Laser Microscope using a plan-neofluar 40×/1.3 oil DIC immersion objective; three of these multi-channel images were obtained from each slide in each experiment.” left out
After 48 hours, half of the supernatant was removed, treated with JPT1a (dashed-grey) at final concentrations of 25, 5, 1, and 0 μM (positive control), and then added back to respective samples. […] Images were analyzed via custom MATLAB™ subroutine to determine the average quantity of RAGE present within a given volume of cells. […]

T1 sequence (P05067 672-711 limits assumed): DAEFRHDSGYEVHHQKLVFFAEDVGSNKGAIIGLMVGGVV

In the case of `CC[C@H](C)N(CC(=O)N(CC(=O)N(CC(=O)N(CC(=O)N(CC(=O)N(CC(=O)N(CC(N)=O)[C@@H](C)c1ccccc1)[C@@H](C)c1ccccc1)[C@@H](C)CC)[C@@H](C)c1ccccc1)[C@@H](C)c1ccccc1)[C@@H](C)CC)C(=O)CNCCCCN` [JPT1a] (H-[Nlys][N(1S-Me-propyl)Gly][N(1S-Me-propyl)Gly][Nspe][Nspe][N(1S-Me-propyl)Gly][Nspe][Nspe]-NH2), the “levels of LPS-induced IL-6” value (IL-6; peptoid 10 μM with 2 ng/mL LPS) is given as “significantly reduces”, the “LPS-induced production of IL-6” value (IL-6; peptoid 50 μM with 2 ng/mL LPS) is given as “significantly attenuates” and the Aβ1-40 aggregation (Aβ1-40) is given as “capacity to modulate Aβ1-40 aggregation”. The “LPS-induced production of IL-1β” value (IL-1β [1]) was “significantly attenuates”, the “IL-1β production of previously stimulated macrophages” value (IL-1β [2]) was “does not affect cytokine production” and the “IL-8 production of previously stimulated macrophages” value (IL-8) was “does not affect cytokine production”. For the same compound, the “reversal in LPS-induced RAGE expression” value (RAGE; 5 μM added after 48 h of 2 ng/mL LPS) was “significant reversal” and the “reversal in LPS-induced RAGE expression” value (RAGE; 25 μM added after 48 h of 2 ng/mL LPS) was “significant reversal”.

From patent US11197908B2, “Peptoids and methods for attenuating inflammatory response” (THE BOARD OF TRUSTEES OF THE UNIVERSITY OF ARKANSAS, priority 2018, dated 2021)
